Measurements as given in patent publication US20250177478A1, “G ALPHA Q/11 INHIBITORS FOR USE AS AN ANALGESIC” (University of Florida Research Foundation, Incorporated, priority 2022, published 2025).
Positions of bridges follow the written chain, without caps; N, C: chain ends. Non-standard residues stand in square brackets, D forms with d. Residues, ends and D or L forms follow the SMILES beside them. Leu(3R-O(AcLeu(3R-OH))) = CC(=O)N[C@H](C(=O)O[C@H](C(C)C)[C@H](N)C(=O)O)[C@H](O)C(C)C; NMeT = CN[C@H](C(=O)O)[C@@H](C)O; dPhLac = O=C(O)[C@H](O)Cc1ccccc1; NMeA = CN[C@@H](C)C(=O)O; NMeDha = C=C(NC)C(=O)O

What was measured:
C57BL/6 mice [1] = assay: Hot plate test (52.5° C), anti-nociception; assay type: in vivo, mouse
Description: (§1) A. Experimental animals. C57BL/6 mice (6-8 weeks old) of both sexes were used. Mice were housed in groups on a 12-h light-dark cycle (6:00 am light cycle; 6:00 pm dark cycle) with food (Teklad Global 16% protein rodent diets; Envigo Inc., WI, USA) and water available ad libitum. Animal groups were compiled to ensure minimization of factors (e.g., weight, sex, and health). Mice were within 20-28 g in weight at start of all studies. All tested groups contained a control group and consisted of male and female mice. Males and females were tested on the same day but at different times so that they were not in the room at the same time. All the experiments were tested during the light cycle between 8:00 am and 3:00 pm to avoid any long-term disruption of sleep cycles. Mice were transferred to the behavioural testing room at least 45 min before the first test to acclimatize. Following behavioural evaluation, animals were killed by CO2 inhalation, followed by cervical dislocation and postmortem decapitation.
(§2) B. Drug treatments. […] The dose of YM-254890 for subcutaneous injection was taken from previous published studies. The dose of morphine selected for subcutaneous administration (2.5, 5 and 10 mg kg-1) is commonly used in mouse analgesia. For the combined administration of morphine and YM-254890 on thermal anti-nociception, YM-254890 was administered 10 min before the morphine. The latency of response was measured before injection of drugs (baseline latency response) and at different time intervals (post-treatment latency response) after drugs injection.
D. Intracerebral injections. Intracerebroventricular administration was performed following the method described previously with slight modifications (Haley T J et al. “Pharmacological effects produced by intracerebral injection of drugs in the conscious mouse.” British Journal of Pharmacology and Chemotherapy, (1957) 12:12-15; Narita M et al. “Reduced expression of a novel μ-opioid receptor (MOR) subtype MOR-1B in CXBK mice: Implications of MOR-1B in the expression of MOR-mediated responses.” The European Journal of Neuroscience (2003) 18:3193-3198)). On the day of the drug/vehicle injection or on the day of behavioural test, the mouse was secured at the nape of the neck and head by the investigator's thumb and forefinger, and head of the mouse was held against a V-shaped holder. A 27-gauge hypodermic needle attached with 25 μL. Hamilton microsyringe was inserted perpendicularly into the unilateral injection site into the hole with the depth of 3.5 mm. The injection volume was 4 μL.
(1) Hot Plate test. Animals were tested for the assessment of anti-nociception and analgesic effects of morphine using a hotplate set to 52.5° C. The assay was performed as described previously (Bannon A W et al. “Models of nociception: Hotplate, tail-flick, and formalin tests in rodents.” In Current Protocols in Neuroscience, Chapter 8: Unit 8.9. Wiley (2007); Wang D et al. “Genetic behavioral screen identifies an orphan anti-opioid system.” Science (2019) 365:1267-1273). Mice were placed in a Plexiglas chamber (16″ tall and 8″ in diameter) on a ceramic plate heated to 52.5° C. and the timer started.

C57BL/6 mice [2] = assay: Tail immersion test (54° C), spinal analgesia; assay type: in vivo, mouse; settings: for anti-nociceptive response in tail flick (tail immersion) test: subcutaneous
Description: as §1, §2
C. Intrathecal injections. Intrathecal (i.t.) administration was performed following the method described previously (Hylden J L et al. “Intrathecal morphine in mice: a new technique.” Eur J Pharmacol (1980) 67:313-316; Li D et al. “Direct Intrathecal Injection of Recombinant Adeno-associated Viruses in Adult Mice.” J Vis Exp (2019)) with slight modifications. All intrathecal injections were performed using a 25 μL Hamilton syringe with a 30-gauge needle. The injection volume was 5 μL for each mouse. […] Each solution was injected without injection cannulae. Intrathecal injections were made into the L5-L6 intervertebral space of unanesthetized mice. The flick of the tail was considered indicative of a successful i.t. administration.
(2) Tail Immersion test. Anti-nociception induced by YM-254890 or evaluation of morphine's analgesic effects was determined by tail immersion test. The test was performed as previously described (Wang et al. 2019). Individual mice were transferred to experimentation room and restrained using a well-ventilated 50-ml tube with air holes. In order to minimize handling and to facilitate both the drug delivery and testing, each mouse was comfortably positioned in the plastic restrainer tubes with both fore paws and hind paws extending through holes at the bottom of the restrainer. All animals were habituated to restraint 1 h for 3 days prior to behaviour test. […] Once the animal was immobilized (within 25-30 s), two thirds of the entire tail was dipped in water bath heated to 54° C.

[3] = YM-254890 0.5 mg·kg−1 s.c. 10 min before morphine 5 mg/kg s.c.
[4] = YM-254890 s.c. with morphine 5 mg/kg s.c., all animals

## C=C1C(=O)N[C@@H](C)C(=O)N(C)[C@@H](C)C(=O)N[C@@H]([C@H](OC(=O)[C@@H](NC(C)=O)[C@H](O)C(C)C)C(C)C)C(=O)N(C)[C@@H]([C@@H](C)OC)C(=O)O[C@H](C)[C@H](NC(C)=O)C(=O)O[C@H](Cc2ccccc2)C(=O)N1C [YM-254890] (Ac-T[dPhLac][NMeDha]A[NMeA][Leu(3R-O(AcLeu(3R-OH)))][NMeT](Me); ester 1-C)
C57BL/6 mice [1]; YM-254890 0.25 mg·kg−1 s.c. (subthreshold) 10 min before morphine 5 mg/kg s.c.
  effect on opioid-induced analgesia, hotplate test: significantly potentiated anti-nociceptive effects
C57BL/6 mice [1]; [3]
  effect on opioid-induced analgesia, hotplate test: further enhancement of opioid analgesia
C57BL/6 mice [1]; YM-254890 0.25 or 0.5 mg·kg−1 s.c. with morphine 5 mg/kg s.c.
  effect on onset timing and duration of opioid analgesia, hotplate test: no effect on either the onset timing or duration of the opioid analgesia
C57BL/6 mice [1]; YM-254890 alone, subcutaneous, 0.5 and 1.0 mg·kg−1
  time of maximal analgesic response after injection, hotplate test: 30 min
C57BL/6 mice [1]; YM-254890 alone, subcutaneous, higher doses 0.5 and 1.0 mg·kg−1
  paw withdrawal latencies in hotplate test: produced increases in paw withdrawal latencies
C57BL/6 mice [1]; YM-254890 alone, subcutaneous, lower doses 0.1 and 0.3 mg·kg−1
  paw withdrawal latencies in hotplate test: No significant effect
C57BL/6 mice [1]; YM-254890 i.c.v. 0.4, 1.2, 4 nmol
  analgesia in hotplate test after delivery directly into the brain: dose-dependent increase in both the extent and duration of analgesia
C57BL/6 mice [1]; [4]
  time to reach maximal latencies, hotplate test: about 30 min
  time to recover to baseline nociceptive thresholds, hotplate test: about 3 h
C57BL/6 mice [2]; YM-254890 0.25 mg kg-1 s.c. 10 min before morphine 5 mg/kg s.c.
  effect on morphine analgesia, tail immersion test: eliminated this effect
C57BL/6 mice [2]; [3]
  effect on morphine analgesia, tail immersion test: significant enhancement of the anti-nociceptive effects of morphine
C57BL/6 mice [2]; YM-254890 alone, intrathecal, 3.0 and 4.5 nmol
  time to return to baseline nociception, tail immersion test: about 2 h
C57BL/6 mice [2]; YM-254890 alone, intrathecal, 3.0 to 4.5 nmol (ceiling effect)
  magnitude of anti-nociceptive effect upon increasing the dose, tail immersion test: did not change
C57BL/6 mice [2]; YM-254890 alone, intrathecal, doses above 1.5 nmol per injection
  anti-nociception in tail immersion test, intrathecal: significant anti-nociceptive properties
C57BL/6 mice [2]; YM-254890 alone, highest dose 1 mg·kg−1
  anti-nociceptive response in tail flick (tail immersion) test: significant anti-nociceptive response
C57BL/6 mice [2]; YM-254890 alone, lower doses (0.1, 0.3, 0.5 mg/kg)
  anti-nociceptive response in tail flick (tail immersion) test: no significant difference in nociceptive response
C57BL/6 mice [2]; YM-254890 intrathecal 0.5 nmol (lowest subthreshold dose) 10 min before morphine 2.5 mg/kg s.c.
  effect on systemic morphine analgesia, tail immersion test: significantly enhance the anti-nociceptive effects of morphine
C57BL/6 mice [2]; YM-254890 intrathecal 0.5, 1.5, 3.0, 4.5 nmol with morphine 2.5 mg/kg s.c.
  dose dependence of enhancement of morphine analgesia, tail immersion test: increased dose dependently until maximizing at the cut-off value for the test
C57BL/6 mice [2]; YM-254890 intrathecal, at each of the doses, with morphine 2.5 mg/kg s.c.
  maximal extent and duration of morphine analgesia, tail immersion test: both the maximal extent and duration of the analgesic effects of morphine were increased
